The target of test [1] is T1, menin (Homo sapiens, UniProt O00255, T541A).
T1 construct: Menin (a.a. 1-610-6×his tag)
T1 sequence (O00255 with tags, fused parts or gaps T541A): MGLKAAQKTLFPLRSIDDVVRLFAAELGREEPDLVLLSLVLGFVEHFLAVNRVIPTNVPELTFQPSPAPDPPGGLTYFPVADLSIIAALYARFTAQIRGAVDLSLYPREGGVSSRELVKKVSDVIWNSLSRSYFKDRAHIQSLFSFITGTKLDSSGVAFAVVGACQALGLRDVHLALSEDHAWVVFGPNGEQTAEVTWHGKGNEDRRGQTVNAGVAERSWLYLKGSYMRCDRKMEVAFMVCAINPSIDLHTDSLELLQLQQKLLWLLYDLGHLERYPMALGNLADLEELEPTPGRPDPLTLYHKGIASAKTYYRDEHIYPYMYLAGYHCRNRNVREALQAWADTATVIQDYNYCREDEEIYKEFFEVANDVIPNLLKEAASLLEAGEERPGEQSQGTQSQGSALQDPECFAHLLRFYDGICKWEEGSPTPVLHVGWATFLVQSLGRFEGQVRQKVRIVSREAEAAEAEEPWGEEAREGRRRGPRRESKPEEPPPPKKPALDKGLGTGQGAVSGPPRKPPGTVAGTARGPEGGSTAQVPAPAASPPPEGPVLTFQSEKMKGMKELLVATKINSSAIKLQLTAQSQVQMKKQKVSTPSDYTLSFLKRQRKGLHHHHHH
Put plainly: Menin/MLL homogenous time-resolved fluorescence (HTRF) assay. In kind it is binding. To be noted: location 2; read-out: (2) location 2 Menin HTRF assay (IC50 (nM)). The gist of the method: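 Terbium-labeled menin (aa 1-610, His-tagged; […]) preincubated 5 min with compound, then 75 nM FITC-MBM1 peptide for 15 min, ambient, Tris pH 7.5, 0.5% DMSO. HTRF 520/490 ratio; 11-point 3-fold titration; IC50 from % inhibition fit.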

For test [2], the system named is MOLM14. As to the kind of experiment: Proliferation assay B (spheroid assay) MOLM14. The format is cell-based, human. The conditions noted are these: MOLM14 cells, confluence at day 8, absolute IC50, read-out: (3b) Spheroid assay MOLM14 (IC50(μM)) Assay B. The procedure, abridged:
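Leukemia cells grown as spheroids in ultra-low-attachment round-bottom wells with compound at 0.3% DMSO for 8 d at 37 °C. Confluence imaged at day 8 as spheroid size, normalized between DMSO and 1 μM staurosporine controls; absolute IC50 from sigmoidal fit with bounds fixed at 0 and 100%.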

For test [3], the system named is MV-4-11. As to the kind of experiment: Proliferation assay B (spheroid assay) MV-4-11. The conditions noted are these: MV-4-11 cells, confluence at day 8, absolute IC50, read-out: (3b) Spheroid assay MV-4--11 (IC50(μM)) Assay B. The format is cell-based, human. On the procedure:
3b) Proliferation Assay B
The anti-proliferative effect of menin/MLL protein/protein interaction inhibitor test compounds was assessed in human leukemia cell lines. The cell lines MV-4-11 and MOLM14 harbor MILL translocations and express the MILL fusion proteins MLL-AF4 and MLL-AF9, respectively, as well as the wildtype protein from the second allele. […] K562 was used as a control cell line containing two MLL wildtype alleles in order to exclude compounds that display general cytotoxic effects.
MV-4-11 and MOLM14 were cultured in RPMI-1640 (Sigma Aldrich) supplemented with 10% fetal bovine serum (HyClone), 2 mM L-glutamine (Sigma Aldrich) and 50 μg/ml gentamycin (Gibco). K562 were propagated in RPMI-1640 (Sigma Aldrich) supplemented with 20% fetal bovine serum (HyClone), 2 mM L-glutamine (Sigma Aldrich) and 50 μg/ml gentamycin (Gibco).
In order to assess the anti-proliferative effects, 1,500 MV-4-11, 300 MOLM14 cells or 750 K562 cells were seeded in 200 μl media per well in 96-well round bottom, ultra-low attachment plates (Costar, catalogue number 7007). Cell seeding numbers were chosen based on growth curves to ensure linear growth throughout the experiment. Test compounds were added at different concentrations and the DMSO content was normalized to 0.3%. Cells were incubated for 8 d at 37° C. and 5% CO2. Spheroid like growth was measured in real-time by live-cell imaging (IncuCyteZOOM, Essenbio, 4× objective) acquiring images at day 8. Confluence (%) as a measure of spheroid size was determined using an integrated analysis tool.
In order to determine the effect of the test compounds over time, the confluence in each well as a measure of spheroid size, was calculated. Confluence […] at the beginning of the experiment (t=0) was used as baseline for the calculation.
Absolute IC50 values were calculated as percent change in confluence as follows:
LC=Low Control: cells treated with 1 μM of the cytotoxic agent staurosporin
HC=High Control: Mean confluence (%) (DMSO treated cells) % Effect=100−(100*(Sample−LC)/(HC−LC))
To determine the IC50 a curve is fitted to the plot of % Effect vs Log 10 compound concentration using a sigmoidal fit with a variable slope and fixing the maximum to 100% and the minimum to 0%.

Each structure is given as a SMILES string. Where two headings read alike, the source gives them in different places.

As usually defined, the IC50 is the concentration needed to halve the response being measured.

Regarding `CN1CCC(c2cc(NC3CC4(CCN(c5ncnc6sc(CC(F)(F)F)cc56)C4)C3)ccc2C#N)CC1` (single isomer, unassigned) [Compound 79], the IC50 was 14.2 nM in test [1]; 0.59 µM in test [2] (Homo sapiens, MOLM-14, 192 h); 0.17 µM in test [3] (Homo sapiens, MV4-11, 192 h).

For the molecule `O=C(NCCO)c1ccc(NC2CC3(CCN(c4ncnc5sc(CC(F)(F)F)cc45)C3)C2)cc1` (single isomer, unassigned) [Compound 84], the IC50 in test [1] was determined as 2.3 nM; in test [2] (Homo sapiens, MOLM-14, 192 h) it was 0.56 µM; in test [3] (Homo sapiens, MV4-11, 192 h), 0.06 µM.

For `FC(F)(F)Cc1cc2c(N3CCC4(CC(Nc5cccnc5)C4)C3)ncnc2s1` (single isomer, unassigned) [Compound 153], the IC50 in test [1] is 34.7 nM; in test [2] (Homo sapiens, MOLM-14, 192 h) it was above 3.75 µM; in test [3] (Homo sapiens, MV4-11, 192 h) it was 2.47 µM.

With `CNC(=O)c1ccc(NC2CC3(CCN(c4ncnc5sc(CC(F)(F)F)cc45)C3)C2)c(F)c1F` (single isomer, unassigned) [Compound 226], the IC50 in test [1] is 7.8 nM; in test [2] (Homo sapiens, MOLM-14, 192 h), 2.83 µM; in test [3] (Homo sapiens, MV4-11, 192 h), 0.43 µM.

For the molecule `CN1CC=C(c2cc(NC3CC4(CCN(c5ncnc6sc(CC(F)(F)F)cc56)C4)C3)ccc2C(C)(C#N)C#N)CC1` (single isomer, unassigned) [Compound 247], the IC50 came to 30.2 nM in test [1], 0.71 µM in test [2] and 0.97 µM in test [3].

As for `CN(C)CCNC(=O)c1ccc(NC2CC3(CCN(c4ncnc5sc(CC(F)(F)F)cc45)C3)C2)nc1` (single isomer, unassigned) [Compound 254], the IC50 came to 2.8 nM in test [1]; 1.5 µM in test [2]; 0.17 µM in test [3] (Homo sapiens, MV4-11, 192 h).

Turning to `Cc1nc(N2CCC3(CC(NCc4ccccc4)C3)C2)c2cc(CC(F)(F)F)sc2n1` (single isomer, unassigned) [Compound 262], the IC50 came out at 15.1 nM in test [1]; 0.81 µM in test [2] (Homo sapiens, MOLM-14, 192 h); 0.69 µM in test [3] (Homo sapiens, MV4-11, 192 h).

Take `COc1nc(N2CCC3(CC(Nc4ccccc4)C3)C2)c2cc(CC(F)(F)F)sc2n1` (single isomer, unassigned) [Compound 267]: the IC50 was 98.2 nM in test [1]; above 3.75 µM in test [2] (Homo sapiens, MOLM-14, 192 h); above 3.75 µM in test [3] (Homo sapiens, MV4-11, 192 h).

For `O=c1[nH]c2cc(N[C@@H]3CCC4(C3)CN(c3ncnc5sc(CC(F)(F)F)cc35)C4)ccc2o1` (single isomer, unassigned) [Compound 286], the IC50 in test [1] is 23.7 nM; in test [2] (Homo sapiens, MOLM-14, 192 h), above 3.75 µM; in test [3] (Homo sapiens, MV4-11, 192 h) it was 2.48 µM.

In the case of `O=c1[nH]c2cc(N[C@H]3CCC4(C3)CN(c3ncnc5sc(CC(F)(F)F)cc35)C4)ccc2o1` (single isomer, unassigned) [Compound 287], the IC50 in test [1] was 22.8 nM; in test [2] (Homo sapiens, MOLM-14, 192 h) it was above 3.75 µM; in test [3] (Homo sapiens, MV4-11, 192 h), 3.37 µM.

Turning to `O=C(c1ccc(NC2CC3(CCN(c4ncnc5sc(CC(F)(F)F)cc45)C3)C2)cc1)N1CCOCC1` (single isomer, unassigned) [Compound 334], the IC50 is 256 nM in test [1], above 3.75 µM in test [2] and above 3.75 µM in test [3].

As for `O=C(c1ccc(NC2CC3(CCN(c4ncnc5sc(CC(F)(F)F)cc45)C3)C2)cc1)N1CCOCC1` (single isomer, unassigned) [Compound 335], the IC50 in test [1] was 5.2 nM; in test [2], 1.55 µM; in test [3], 0.46 µM.

On to `CS(=O)(=O)NC(=O)c1ccc(NC2CC3(CCN(c4ncnc5sc(CC(F)(F)F)cc45)C3)C2)cc1` (single isomer, unassigned) [Compound 361], for which the half-maximal inhibitory concentration (IC50) in test [1] is 61.7 nM; in test [2] it was above 3.75 µM; in test [3], above 3.75 µM.

On to `CS(=O)(=O)NC(=O)c1ccc(NC2CC3(CCN(c4ncnc5sc(CC(F)(F)F)cc45)C3)C2)cc1` (single isomer, unassigned) [Compound 362], for which the IC50 in test [1] was 836 nM; in test [2] (Homo sapiens, MOLM-14, 192 h), above 3.75 µM; in test [3] (Homo sapiens, MV4-11, 192 h), above 3.75 µM.

For `COC[C@@H]1CN(C(=O)c2ccc(NC3CC4(CCN(c5ncnc6sc(CC(F)(F)F)cc56)C4)C3)cc2)CCO1` (single isomer, unassigned) [Compound 410], the IC50 in test [1] was 68.7 nM; in test [2] (Homo sapiens, MOLM-14, 192 h), above 3.75 µM; in test [3] (Homo sapiens, MV4-11, 192 h), above 3.75 µM.

In the case of `O=C(c1ccc(NC2CC3(CCN(c4ncnc5sc(CC(F)(F)F)cc45)C3)C2)cc1)N1CC2(COC2)C1` (single isomer, unassigned) [Compound 413], the IC50 is 2290 nM in test [1]; above 3.75 µM in test [2] (Homo sapiens, MOLM-14, 192 h); above 3.75 µM in test [3] (Homo sapiens, MV4-11, 192 h).

In the case of `Cn1c(=O)[nH]c2ccc(CN[C@@H]3CCC4(C3)CN(c3ncnc5sc(CC(F)(F)F)cc35)C4)cc21` (stereo in doubt) [Compound 110], the IC50 in test [1] turned out to be 5.5 nM; in test [2] (Homo sapiens, MOLM-14, 192 h) it was 1.91 µM; in test [3] (Homo sapiens, MV4-11, 192 h), 0.62 µM.

With `Cn1c(=O)[nH]c2ccc(CN[C@H]3CCC4(C3)CN(c3ncnc5sc(CC(F)(F)F)cc35)C4)cc21` (stereo in doubt) [Compound 111], the IC50 was 65 nM in test [1]; 3.06 µM in test [2] (Homo sapiens, MOLM-14, 192 h); 0.62 µM in test [3] (Homo sapiens, MV4-11, 192 h).

On to `COc1nc(N2CC3(CC[C@H](NCc4cccc(-c5cc[nH]n5)c4)C3)C2)c2cc(CC(F)(F)F)sc2n1` (stereo in doubt) [Compound 116], for which the IC50 turned out to be 30.6 nM in test [1]; 2.32 µM in test [2] (Homo sapiens, MOLM-14, 192 h); 2.06 µM in test [3] (Homo sapiens, MV4-11, 192 h).

On to `CNc1nc(N2CC3(CC[C@@H](NCc4cccc(-c5cc[nH]n5)c4)C3)C2)c2cc(CC(F)(F)F)sc2n1` (stereo in doubt) [Compound 121], for which the IC50 in test [1] came to 32.7 nM; in test [2] (Homo sapiens, MOLM-14, 192 h), 1.6 µM; in test [3] (Homo sapiens, MV4-11, 192 h), 0.98 µM.

For the molecule `CNc1nc(N2CC3(CC[C@H](NCc4cccc(-c5cc[nH]n5)c4)C3)C2)c2cc(CC(F)(F)F)sc2n1` (stereo in doubt) [Compound 122], the IC50 in test [1] amounted to 49.3 nM; in test [2] (Homo sapiens, MOLM-14, 192 h), 1.21 µM; in test [3] (Homo sapiens, MV4-11, 192 h) it was 0.44 µM.

Take `N#CCc1ccc(N[C@@H]2CC[C@@]3(CCN(c4ncnc5sc(CC(F)(F)F)cc45)C3)C2)cc1` (stereo in doubt) [Compound 144]: the IC50 in test [1] was 9.3 nM; in test [2] (Homo sapiens, MOLM-14, 192 h) it was 2.77 µM; in test [3] (Homo sapiens, MV4-11, 192 h), 1.4 µM.

In the case of `N#CCc1ccc(N[C@H]2CC[C@@]3(CCN(c4ncnc5sc(CC(F)(F)F)cc45)C3)C2)cc1` (stereo in doubt) [Compound 145], the IC50 in test [1] was 22.6 nM; in test [2] (Homo sapiens, MOLM-14, 192 h), above 3.75 µM; in test [3] (Homo sapiens, MV4-11, 192 h) it was 3.55 µM.

`N#CCc1ccc(N[C@H]2CC[C@]3(CCN(c4ncnc5sc(CC(F)(F)F)cc45)C3)C2)cc1` (stereo in doubt) [Compound 147]: the IC50 in test [1] was found to be 45.3 nM; in test [2] (Homo sapiens, MOLM-14, 192 h), 2.9 µM; in test [3] (Homo sapiens, MV4-11, 192 h), 2.07 µM.
